Source: patent US20230065740A1, “CYCLIN-DEPENDENT KINASE INHIBITORS” (SPV THERAPEUTICS INC., priority 2018, published 2023)
Read-outs that look alike come from different tables or passages of the source.

Assays:
CDK6-CYCLIND3 = molecular target: T1, CDK6-CYCLIND3 (Homo sapiens, UniProt Q00534); experiment: Microfluidic LabChip kinase inhibition assay, CDK6-CyclinD3; format: biochemical; details: 300 μM ATP
T1 construct: purchased Carna

CDK4-CYCLIND1 = CDK4-CYCLIND1 (Homo sapiens, UniProt P11802); experiment: Microfluidic LabChip kinase inhibition assay, CDK4-CyclinD1; details: 200 μM ATP
Sequence of CDK4-CYCLIND1 (P11802 whole entry): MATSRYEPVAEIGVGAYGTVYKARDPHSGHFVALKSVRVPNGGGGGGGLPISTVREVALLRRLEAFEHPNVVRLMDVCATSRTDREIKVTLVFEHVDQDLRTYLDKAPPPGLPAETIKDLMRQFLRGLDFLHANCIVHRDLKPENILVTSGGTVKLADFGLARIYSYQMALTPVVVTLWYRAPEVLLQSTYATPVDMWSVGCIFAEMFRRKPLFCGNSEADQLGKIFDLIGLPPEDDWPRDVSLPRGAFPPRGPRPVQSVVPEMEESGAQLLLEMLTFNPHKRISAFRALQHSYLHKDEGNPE
Sequence of CDK4-CYCLIND1 (P24385 whole entry partner): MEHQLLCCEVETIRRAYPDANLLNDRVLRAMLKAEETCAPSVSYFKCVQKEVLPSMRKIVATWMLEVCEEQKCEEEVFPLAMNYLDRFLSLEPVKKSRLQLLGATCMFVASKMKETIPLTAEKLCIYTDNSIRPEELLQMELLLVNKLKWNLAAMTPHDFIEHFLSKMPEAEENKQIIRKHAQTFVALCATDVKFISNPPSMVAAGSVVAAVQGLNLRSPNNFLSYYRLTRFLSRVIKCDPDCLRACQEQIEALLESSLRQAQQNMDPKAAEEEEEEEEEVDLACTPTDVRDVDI
Procedure: Inhibition assays were performed using microfluidic LabChip 300 Drug Discovery System from Caliper Life Sciences. […] The assay has a total volume of 10 μL consisting of 5 μL of enzyme and buffer and 5 μL of substrate and buffer. The test compounds were diluted in 100% dimethylsulfoxide (DMSO) using 3-fold dilution steps. […] Compounds were tested in a single well for each dilution and the final concentration of DMSO was maintained at 1%.
The assay buffer contained 100 mM HEPES, pH 7.5, 0.01% Triton X-100, 0.1% bovine serum albumin (BSA), 5 mM MgCl2; 1 mM dithiothreitol (DTT), 10 μM sodium orthovanadate, and 10 μM β-glycerophosphate.
The assay was conducted by adding 5 μL of enzyme, adenosine triphosphate (ATP) and buffer to an assay plate. A 100 nL aliquot of the diluted compounds were added to the plate. The assay was initiated by the addition of 5 μL of phosphoenolpyruvate substrate (PEP) in buffer. […] The reaction was terminated by the addition of EDTA. The plates were analyzed using a Caliper LabChip 3000.

[1] = Table 3a, read-out: CDK6 CyclinD3 IC50
[2] = Table 3b, read-out: CDK6 CyclinD3 IC50
[3] = CDK4 CyclinD1 IC50 (μM), Table 3a, second value in parentheses on the next line
[4] = CDK4 CyclinD1 IC50 (μM), Table 3b, second value in parentheses on the next line
[5] = Table 2, 2 nM enzyme, read-out: CDK6 IC50
[6] = CDK4 IC50 (μM), Table 2, 1 nM enzyme

T1 sequence (Q00534 whole entry): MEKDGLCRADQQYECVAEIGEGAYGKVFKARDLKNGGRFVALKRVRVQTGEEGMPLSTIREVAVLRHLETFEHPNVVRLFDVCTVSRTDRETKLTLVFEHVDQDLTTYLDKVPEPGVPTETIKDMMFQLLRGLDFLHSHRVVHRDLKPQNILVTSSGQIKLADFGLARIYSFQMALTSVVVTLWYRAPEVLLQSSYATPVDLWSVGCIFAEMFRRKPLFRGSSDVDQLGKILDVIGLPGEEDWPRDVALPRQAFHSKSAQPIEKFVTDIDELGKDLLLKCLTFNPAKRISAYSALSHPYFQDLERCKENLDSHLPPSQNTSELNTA
T1 sequence (P30281 whole entry partner): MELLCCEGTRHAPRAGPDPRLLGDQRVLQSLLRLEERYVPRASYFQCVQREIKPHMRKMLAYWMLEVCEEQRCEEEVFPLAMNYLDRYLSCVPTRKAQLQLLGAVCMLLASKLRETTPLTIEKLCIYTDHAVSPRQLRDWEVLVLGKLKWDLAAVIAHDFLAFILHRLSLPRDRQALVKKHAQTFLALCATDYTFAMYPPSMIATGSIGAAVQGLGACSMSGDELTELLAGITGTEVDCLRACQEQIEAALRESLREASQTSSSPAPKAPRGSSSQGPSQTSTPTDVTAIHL

IC50 (CDK6-CYCLIND3; [5])	IC50 (CDK4-CYCLIND1; [6])	SMILES	IC50 (CDK6-CYCLIND3; [1])	IC50 (CDK6-CYCLIND3; [2])	IC50 (CDK4-CYCLIND1; [3])	IC50 (CDK4-CYCLIND1; [4])
		O=C1NCCC12Cc1cnc(Nc3ccc(N4CCNCC4)c(F)c3)nc1N2C1CCCC1 (single isomer, unassigned) [Compound C203, 7′-cyclopentyl-2′-((3-fluoro-4-(piperazin-1-yl)phenyl)amino)-5′,7′-dihydrospiro[pyrrolidine-3,6′-pyrrolo[2,3-d]pyrimidin]-2-one]	0.104 µM	0.104 µM	0.0245 µM	0.0245 µM
		O=C1NCCC12Cc1cnc(Nc3ccc(N4CCNCC4)c(F)c3)nc1N2C1CCCC1 (single isomer, unassigned) [Compound C204, 7′-cyclopentyl-2′-((3-fluoro-4-(piperazin-1-yl)phenyl)amino)-5′,7′-dihydrospiro[pyrrolidine-3,6′-pyrrolo[2,3-d]pyrimidin]-2-one]	11.8 µM	11.8 µM	2.03 µM	2.03 µM
		CN1CCN(c2ccc(Nc3ncc4c(n3)N(C3CCCC3)C3(CCNC3=O)C4)cc2F)CC1 (single isomer, unassigned) [Compound C205, 7′-cyclopentyl-2′-((3-fluoro-4-(4-methylpiperazin-1-yl)phenyl)amino)-5′,7′-dihydrospiro[pyrrolidine-3,6′-pyrrolo[2,3-d]pyrimidin]-2-one]	0.179 µM	0.179 µM	0.0413 µM	0.0413 µM
		CN1CCN(c2ccc(Nc3ncc4c(n3)N(C3CCCC3)C3(CCNC3=O)C4)cc2F)CC1 (single isomer, unassigned) [Compound C206, 7′-cyclopentyl-2′-((3-fluoro-4-(4-methylpiperazin-1-yl)phenyl)amino)-5′,7′-dihydrospiro[pyrrolidine-3,6′-pyrrolo[2,3-d]pyrimidin]-2-one]	15.8 µM	15.8 µM	5.14 µM	5.14 µM
19.1 µM	4.74 µM	CN1CCN(c2ccc(Nc3ncc4c(n3)N(C3CCCC3)C3(CCN(C)C3=O)C4)cc2)CC1 (stereo not shown) [Compound C1, 7′-cyclopentyl-1-methyl-2′-((4-(4-methylpiperazin-1-yl)phenyl)amino)-5′,7′-dihydrospiro[pyrrolidine-3,6′-pyrrolo[2,3-d]pyrimidin]-2-one]				
23.8 µM	5.16 µM	CN1CCC2(Cc3cnc(Nc4ccc(N5CCNCC5)cc4)nc3N2C2CCCC2)C1=O (stereo not shown) [Compound C2, 7′-cyclopentyl-1-methyl-2′-((4-(piperazin-1-yl)phenyl)amino)-5′,7′-dihydrospiro[pyrrolidine-3,6′-pyrrolo[2,3-d]pyrimidin]-2-one]				
> 30 µM	> 30 µM	CC(C)N1CCN(c2ccc(Nc3ncc4c(n3)N(C3CCCC3)C3(CCN(C)C3=O)C4)nc2)CC1 (stereo not shown) [Compound C3, 7′-cyclopentyl-2′-((5-(4-isopropylpiperazin-1-yl)pyridin-2-yl)amino)-1-methyl-5′,7′-dihydrospiro[pyrrolidine-3,6′-pyrrolo[2,3-d]pyrimidin]-2-one]				
	57.6 µM	CN1CCN(c2ccc(Nc3ncc4c(n3)N(C3CCCC3)CC43CCNC3=O)nc2)CC1 (stereo not shown) [Compound C98, 7′-cyclopentyl-2′-((5-(4-methylpiperazin-1-yl)pyridin-2-yl)amino)-6′,7′-dihydrospiro[pyrrolidine-3,5′-pyrrolo[2,3-d]pyrimidin]-2-one]				
	59.4 µM	O=C1NCCC12C(=O)N(C1CCCC1)c1nc(Nc3ccc(N4CCNCC4)cn3)ncc12 (stereo not shown) [Compound C99, 7′-cyclopentyl-2′-((5-(piperazin-1-yl)pyridin-2-yl)amino)spiro[pyrrolidine-3,5′-pyrrolo[2,3-d]pyrimidine]-2,6′(7′H)-dione]				
	51 µM	CC(C)N1CCN(c2ccc(Nc3ncc4c(n3)N(C3CCCC3)C(=O)C43CCNC3=O)cc2F)CC1 (stereo not shown) [Compound C104, 7′-cyclopentyl-2′-((3-fluoro-4-(4-isopropylpiperazin-1-yl)phenyl)amino)spiro[pyrrolidine-3,5′-pyrrolo[2,3-d]pyrimidine]-2,6′(7′H)-dione]				
